Laboratory results taken from US20230233566A1, “INHIBITION OF BMI1 ELIMINATES CANCER STEM CELLS AND ACTIVATES ANTITUMOR IMMUNITY” (The Regents of the University of California, priority 2020, published 2023).

Tests used:
IFNβ = experiment: qRT-PCR of IFNβ mRNA; format: cell-based, human; conditions: SCC23 cells
Experimental: (§1) For qRT-PCR, total RNA was prepared using TRIzol reagent (Thermo Fisher Scientific Cat #15596026), and 1 μg of RNA was reversely transcribed with random primer (Thermo Fisher Scientific Cat #48190011), dNTP mix (Thermo Fisher Scientific, Cat #18427013), and M-MuLV Reverse Transcriptase (New England Biolabs, Cat #M0253L). The levels of mRNA were […] measured using a SYBRGreen supermix (Bio-Rad, Cat #1708880). GAPDH was used as an internal control.

HNSCC tumor cells = experiment: Anti-active caspase-3 (Ac-casp3) immunostaining of apoptosis in HNSCC; format: in vivo, mouse; conditions: 4NQO-induced HNSCC, treated 4 weeks
Experimental: (§2) The immunocomplexes were detected and visualized using related secondary antibodies conjugated with Cy2 or Cy3 (Jackson ImmunoResearch Laboratories). […] At least three sections from each HNSCC lesions were immunostained and analyzed. Tumor cells (>150) and CD8+, Ac-casp3+ and Tomato^+ cells of these tumor cell areas were counted manually in each section. The percentage of CD8+, Ac-casp3^+ and Tomato^+ cells were calculated by dividing those cells with tumor cells and averaged from the sections.

SCC23 cells = experiment: qRT-PCR of ATM, DNA-PKcs, MRE11, JUN, FOSL1, MMP3, MMP9 in SCC23 cells; format: cell-based, human
Experimental: as §1

B16 melanoma = format: in vivo, mouse; conditions: B16 tumors in immunocompetent mice
Experimental: C57/6J mice were injected in the flank subcutaneously with B16 melanoma cells (250,000 cells per site). Tumors were measured every 3 days once palpable (long diameter and short diameter) with a caliper. Tumor volume was determined using the volume formula for an ellipsoid: ½×D×d^2 where D is the longer diameter and d is the shorter diameter. Mice were sacrificed when tumors reached 1000 mm^3 or upon ulceration/bleeding.

pH2A.X [1] = experiment: pH2A.X immunofluorescent staining in 4NQO-induced HNSCC; set-up: species or system mouse; conditions: 4NQO-induced HNSCC in vivo
[2] = test system: cGAS-STING-IRF3 signaling; experiment: Western blot of phosphorylated STING, TBK1, IRF3; format: cell-based, human
Experimental: (§3) Cells were lysed using the radioimmunoprecipitation assay (RIPA) buffer (Sigma-Aldrich, Cat #R0278) added with a cocktail of protease inhibitors (Thermo Fisher Scientific, Cat ##78430) and phosphatase inhibitors (Sigma-Aldrich, Cat #4906845001). Protein extracts were resolved on a 10% or 15% SDS polyacrylamide gel and then transferred to a polyvinylidene difluoride membrane. Membranes were blocked with 5% milk for 1 h and incubated with primary antibodies overnight at 4° C. Primary antibodies used in this study were: anti-phospho-STING (Ser366) (1:1,000; Cell Signaling Technology, Cat #19781), anti-STING (1:1,000; Cell Signaling Technology, Cat #13647), anti-phospho-TBK1 (Ser172) (1:1,000; Cell Signaling Technology, Cat #5483), anti-TBK1 (1:1,000; Cell Signaling Technology, Cat #3504), anti-phospho-IRF3 (Ser396) (1:1,000; Cell Signaling Technology, Cat #29047), anti-IRF3 (1:1,000; Cell Signaling Technology, Cat #4302), anti-BMI1 (1:1,000; Cell Signaling Technology, Cat #6964), anti-Ubiquityl-Histone H2A (Lys119) (1:1000, Cell Signaling Technology, Cat #8240), anti-phospho Histone H2A.X (Ser139) (1:1000; Cell Signaling Technology, Cat #9718), and anti-GAPDH (1:1000; Cell Signaling Technology, Cat #5174), anti-Histone H3 (1:2,000; Cell Signaling Technology, Cat #4499). The signals were detected using the Clarity Western ECL kit (Bio-Rad, Cat #1705060). To measure the protein levels of CCL5, CXCL9, CXCL10 and CXCL11, cells were treated with PTC209 or shBMI1 knockdown for 48 hr. After treatment, supernatants were collected, and the protein levels of CCL5, CXCL9, CXCL10 and CXCL11 were measured with ELISA (R&D Systems, Cat #DRN00B, DCX900, DIP100, DCX110) according to the manufacturer's instructions.

pH2A.X [3] = experiment: DNA damage in SCC23 and SCC1 cells (pH2A.X, alkaline comet assay); format: cell-based, human
Experimental: as §3
Single cell gel electrophoresis comet assays were performed using the SCGE assay Kit (Enzo Life Sciences, Cat #ADI-900-166). Following the treatment, cells were mixed with low melting point agarose at a volume ratio of 1:50, and 100 μl of aliquots were loaded onto pre-warmed slides. Slides were incubated in pre-chilled lysis solution for 1 h and then in pre-chilled alkaline solution for 1 h. Electrophoresis was run at 22 V in the TBE buffer for 30 min. Comets were stained with CYGREEN dye for 30 min and imaged. 50 individual cells at least per sample were evaluated in duplicates by the CASP Version 1.2.2 analysis tool.

BMI1 = BMI1 expression in HNSCC tumors by immunostaining and Western blot; format: in vivo, mouse; conditions: immunostaining and Western blot of HNSCC tumors
Experimental: Cells were lysed using the radioimmunoprecipitation assay (RIPA) buffer (Sigma-Aldrich, Cat #R0278) added with a cocktail of protease inhibitors (Thermo Fisher Scientific, Cat ##78430) and phosphatase inhibitors (Sigma-Aldrich, Cat #4906845001). Protein extracts were resolved on a 10% or 15% SDS polyacrylamide gel and then transferred to a polyvinylidene difluoride membrane. Membranes were blocked with 5% milk for 1 h and incubated with primary antibodies overnight at 4° C. […] The signals were detected using the Clarity Western ECL kit (Bio-Rad, Cat #1705060). […] After treatment, supernatants were collected, and the protein levels of CCL5, CXCL9, CXCL10 and CXCL11 were measured with ELISA (R&D Systems, Cat #DRN00B, DCX900, DIP100, DCX110) according to the manufacturer's instructions.

CD8+ T cells [4] = experiment: Immunostaining of CD8+ T cells in HNSCC; format: in vivo, mouse; conditions: 4NQO-induced HNSCC, treated 4 weeks
Experimental: as §2

BMI1+ CSCs = experiment: In vivo labeling and lineage tracing of Tomato+ BMI1+ CSCs; set-up: species or system mouse; conditions: tamoxifen 1 day prior to sacrifice, treated 4 weeks
Experimental: as §2

[5] = test system: neutrophils and MDSCs (Gr1+CD11b+ cells); experiment: Immunofluorescent staining of neutrophils and MDSCs in HNSCC; format: in vivo, mouse; conditions: 4NQO-induced HNSCC
CD8+ T cells [6] = experiment: Flow cytometry of T cells in lymph nodes, blood and spleen; format: in vivo, mouse; conditions: blood and spleen of 4NQO-induced HNSCC mice
From the text: PBMCs were isolated from blood using Ficoll-Paque Plus density gradient centrifugation (GE Healthcare Life Sciences, Cat #17-1440). Cervical lymph nodes and spleens were collected and processed into single-cell suspensions through mechanical separation. The isolated or dissociated cells were stained with the specific surface marker antibodies, anti-CD3-FITC (eBioscience, Cat #11-0031), anti-CD4-APC (eBioscience, Cat #17-0041), and anti-CD8-PerCP-Cy5.5 (eBioscience, Cat #45-0081) in PBS with FBS for 30 min at 4° C. Intracellular staining of IFNγ was performed as follows: cells were stimulated with PMA and ionomysin cocktail (eBioscience, Cat #00-4970) for 5 h at 37° C. with 5% CO2. Cells were washed and stained with surface marker antibodies, then fixed and permeabilized with a fixation/permeabilization kit (BD Bioscience, Cat #554715) and intracellularly stained with anti-IFNγ-PE (eBioscience, Cat #12-7311). For proper compensation of flow cytometry channels, single-stain samples were utilized, and for gating, isotype controls were applied. The stained cells were analyzed on the BD FACS flow cytometer, and data analyzed using Flowjo software.

COc1cc(Br)c(Nc2nc(-c3c(C)nc4ncccn34)cs2)c(Br)c1 [PTC209, N-(2,6-dibromo-4-methoxyphenyl)-4-(2-methylimidazo[1,2-a]pyrimidin-3-yl)thiazol-2-amine]
IFNβ mRNA expression (IFNβ): induction of IFNβ mRNA expression in SCC23 cells
apoptosis in Tomato+ BMI1+ CSCs (HNSCC tumor cells): able to induce apoptosis in Tomato^+ CSCs
ATM, DNA-PKcs, and MRE11 mRNA expression (SCC23 cells): does not affect the expression of ATM, DNA-PKcs, and MRE11
JUN, FOSL1, MMP3, and MMP9 mRNA expression (SCC23 cells): does not change the expression of JUN, FOSL1, MMP3, and MMP9 significantly
melanoma resistance to anti-PD1 (B16 melanoma): overcomes melanoma resistance to anti-PD1 by recruiting CD8+ T cells
pH2A.X in HNSCC (pH2A.X [1]): significantly increased
phosphorylation of STING (S366), TBK1 (S172) and IRF3 (S396) ([2]; SCC1 cells): induction of phosphorylation of STING (S366), TBK1 (S172) and IRF3 (S396) in SCC1 cells
phosphorylation of STING (S366), TBK1 (S172) and IRF3 (S396) ([2]; SCC23 cells): induction of phosphorylation of STING (S366), TBK1 (S172) and IRF3 (S396) in SCC23 cells
Olive tail moment (pH2A.X [3]; alkaline comet assay): significantly increased the Olive tail moment in SCC23 and SCC1 cells
pH2A.X (pH2A.X [3]; immunostaining and Western blot): increased pH2A.X in SCC23 and SCC1 cells
BMI1 expression in tumors (BMI1): Reduction of BMI1 expression
CD8+ T cell infiltration in HNSCC (CD8+ T cells [4]): could induce CD8+ T cell infiltration in tumors
BMI1+ CSCs in HNSCC (in vivo labeling) (BMI1+ CSCs): able to reduce BMI1+ CSCs
percentage of neutrophils and MDSCs (Gr1+CD11b+ cells) in HNSCC [5]: does not significantly change the percentage of neutrophils and MDSCs (Gr1^+CD11b^+ cells) in HNSCC
percentage of CD8+ T cells and IFNγ-produced CD8+ T cells (CD8+ T cells [6]): no significant alteration in the percentage of CD8+ T cells and IFNγ-produced CD8+ T cells
